Source: patent US4820712A, “Sparsomycin (SC-RS) compounds having antitumor activity, a process for their preparation and pharmaceutical compositions containing sparsomycin (SC-RS) compounds” (priority 1986, dated 1989)
≈ marks a conversion by molar mass, not a printed value. Where two headings read alike, the source gives them in different places.

Columns and labels:
[1] = tested on: ribosomes from E. coli MRE600 (peptidyl transferase activity); assay: polyphenylalanine synthesis assay, E. coli ribosomes; format: biochemical; settings: concentration giving 50% inhibition relative to control; 37° C., 30 min; read-out: ED50 polyPhe synthesis E. coli
Procedure: (§1) The peptidyl transferase activity was measured by the polyphenylalanine synthesis assay (Nirenberg and Matthei, Proc. Natl. Acad. Sci. USA 47 (1961) 1588), the fragment reaction (Monro, Methods Enzymol. 20 (1971) 472) and the puromycin reaction. In all the in vitro tests, i.e. polyPhe synthesis, fragment reaction and puromycin reaction, ribosomes from E. coli MRE600 and S. cerevisiae Y166 were used. The reaction mixture for polyphenylalanine synthesis was slightly different for E. coli and S. cerevisiae.
E. coli: The reaction mixture (50 μl) contained 50 mM Tris-HCl pH 7.6, 15 mM MgCl2, 90 mM KCl, 15 mM β-mercapto ethanol, 1 mM GTP, 10 mM ATP, 0.2 mg/ml of polyuridylic acid, 1.5 mg/ml tRNA, 0.3 μM of ribosomes, 2.5 mg/ml of phosphoenol pyruvate, 20 μg/ml of pyruvate kinase, the required concentration of sparsomycin or its analogue and 5 μl of supernatant fraction S-100. Subsequently, [^3 H]phenylalanine, 30 μM (about 60 cpm/pmol) was added to start the reaction. Incubation was at 37° C. for 30 min. The reaction was stopped by the addition of 1 ml of 10% TCA and the samples were filtered through glass fiber filters. The filters were washed with 10 ml of cold 10% TCA, dried and counted for radioactivity.
(§2) The concentration of sparsomycin or an analog giving 50% inhibition of the protein synthesis relative to the control is given in ED50.

acute toxicity LD50 = format: in vivo, mice; settings: mouse, in vivo, ip, daily x9 injections, mice; 95% confidence interval given; read-out: LD 50 in mg/kg/inj i.p. in mice
Source text: It appears therefrom that ala-sparsomycin is about 9× less toxic than sparsomycin.

Leukemia L 1210 cells = assay: in vitro clonogenic L1210 assay (inhibition of colony formation in soft agar); format: cell-based; settings: Mus musculus, L1210, 72 h, read-out: ID50 (dose giving 50% inhibition of L1210 colony formation)
Procedure: The in vitro clonogenic assay was effected in Leukemia L 1210 cells in soft agar medium (0.3%). […] In the analysis, the inhibition of the L 1210 colony formation by sparsomycin and derivatives thereof is determined for various concentrations, and the dose giving 50% inhibition of the colony formation, as compared with non-treated control cells is calculated (ID50).
From a suspension culture one hundred L 1210 cells are plated out in 35 mm culture dishes (Falcon) containing 1 ml soft agar culture medium and the compound to be investigated in suitable concentrations. The soft agar culture medium consists of Dulbecco's medium supplemented with 20% horse serum, 60 μmole 2-mercaptoethanol, 20 mg/ml L-asparagine, 75 mg/ml DEAE dextran (molecular weight 2×10^6) and 0.3% bacto agar (Difco). The culture dishes were incubated at 37° C. in an atmosphere of 10% CO2 in humidified air for 3 days. After this period of continuous exposure to the medicament the colonies were counted and dose-effect curves made. From these curves, the medicament dose is calculated which causes 50% inhibition of the colony formation as compared with non-treated control cells.

[2] = tested on: ribosomes from E. coli MRE600 (peptidyl transferase activity); assay: fragment reaction, E. coli ribosomes; format: biochemical; settings: 50% inhibition relative to control; 0° C., 30 min, 33% methanol; read-out: ED50 Fragment reaction E. coli
Procedure: as §1
(§3) The fragment reaction was carried out in 150 μl of 33 mM Tris-HCl pH 7.4, 270 mM KCl, 13 mM magnesium acetate containing 1 mg/ml of ribosomes, 2 mM puromycin, 1 pmol of N-acetyl-[^3 H]Leu-ACCAC(U), the required concentration of sparsomycin or its analogue and 33% methanol. The reaction was initiated by the addition of the alcohol and allowed to proceed at 0° C. for 30 min, and was then stopped by the addition of 100 μl of 0.3M sodium acetate pH 5.5 saturated with MgSO4. The samples were extracted with 1.5 ml of ethyl acetate and 1 ml of the organic phase was checked for radioactivity. The 3' terminal pentanucleotide N-acetyl-[^3 H]Leu-ACCAC(U) was prepared from N-acetyl-[^3 H]Leu-tRNA by ribonuclease T1 as described by Monro.
as §2

[3] = biological target: ribosomes from S. cerevisiae Y166 (peptidyl transferase activity); assay: fragment reaction, S. cerevisiae ribosomes; format: biochemical; settings: 50% inhibition relative to control; 0° C., 30 min, 33% methanol; read-out: ED50 Fragment reaction S. cerevisiae
Procedure: as §1, §3, §2

L1210 leukemia = assay: in vivo antitumor assay, L1210 leukemia; parameters: species or system CDF1 mice
Procedure: (§4) The antitumor activity of the present compounds has also been investigated by in vivo assays. In the assays, mice were treated for nine days in succession, starting at 24 hours after the time of tumor implant.
(§5) The results are shown in tables 4, 5 and 6 and represent the number of tumor-bearing mice surviving after administration of optimal doses of the test compound, expressed as a treatment/control (T/C×100%) ratio. In the tables, information is provided with respect to the sex, dose, weight loss of treated animals compared to control animals, and the number of survivors in groups of 6 mice.

[4] = tested on: ribosomes from E. coli MRE600 (peptidyl transferase activity); assay: puromycin reaction, E. coli ribosomes; format: biochemical; settings: 50% inhibition relative to control; read-out: ED50 Puromycin reaction E. coli
Procedure: as §1
The puromycin reaction was carried out in 25 μl of 30 mM KCl, 50 mM NH4 Cl, 30 mM Tris-HCl pH 7.8, 20 mM MgCl2, 10 pmol of ribosomes, 100 μg/ml of poly(U) and 15 pmol of N-acetyl-[^3 H]Phe-tRNA. The reaction mixture was incubated for 30 min at 37° C. and then 1 μl of 20 mM puromycin was added and incubation was followed for 5 more min. To the samples 250 μl of 0.1M sodium carbonate and 0.7 ml of ethyl acetate were added, shaken for 1 min, centrifuged to separate the phases and 0.5 ml of the upper organic phase taken for estimating the radioactivity.
as §2

P388 leukemia = assay: in vivo antitumor assay, P388 leukemia; parameters: species or system CDF1 mice; settings: for T/C (survival, treatment/control x 100%): ip daily x9, optimal dose mg/kg: sparsomycin 0.125, n-octyl 22.5, benzyl 2.0, 2e 20.0
Procedure: as §4, §5

[5] = tested on: RC (renal cell) carcinoma; assay: in vivo antitumor assay, RC (renal cell) carcinoma; parameters: species or system CDF1 mice; settings: for T/C (survival, treatment/control x 100%): ip daily x9, optimal dose mg/kg: sparsomycin 0.125, n-octyl 20.0, benzyl 2.7, 2a 1.1
Procedure: as §4, §5

solubility in water = format: physicochemical
E. coli MRE600 = assay: inhibition of bacterial growth; format: cell-based
Procedure: Inhibition of bacterial growth was tested in solid as well as in liquid medium. For the test on agar plates, petri dishes containing 15 ml of LB medium (10 g/l bactotryptone, 5 g/l yeast extract and 5 g/l NaCl) were covered with 5 ml of the same medium--kept melted at 40° C.--containing 40 μl of a culture of the required bacterium at approximately an A550 of 2. After solidification, 3 mm filter disks containing 4 μl of a 10 mM solution of the antibiotic in 50EtOH/DMSO were placed on the surface of the agar and the plates were incubated at 37° C. for 24 h. For the test in liquid medium, E. coli MRE600 was grown in LB medium supplemented with 0.2% of glucose to exponential phase (A560 =0.1) and distributed in 1 ml aliquots in tubes containing the required amount of antibiotic. The tubes were incubated at 37° C. for 4 h, subsequently diluted with 3 ml of 0.1% of sodium azide to stop growth and the absorption at 550 nm was measured. The absorption of the medium without addition of antibiotic was considered as 100% growth.

[6] = biological target: ribosomes from S. cerevisiae Y166 (peptidyl transferase activity); assay: polyphenylalanine synthesis assay, S. cerevisiae ribosomes; format: biochemical; settings: concentration giving 50% inhibition relative to control; 30° C., 30 min; read-out: ED50 polyPhe synthesis S. cerevisiae
Procedure: as §1
S. cerevisiae: The test was carried out as indicated above for E. coli. The phosphoenol pyruvate and pyruvate kinase were, however, replaced by creatine phosphate (20 mM) and creatine phosphokinase (50 μg/ml). The incubation was performed at 30° C. for 30 min and the samples were processed as described above. Under these conditions the control samples polymerized 5-14 and 3-8 molecules of phenylalanine per ribosome derived from E. coli and S. cerevisiae, respectively. Ribosomes and supernatant factors from E. coli and S. cerevisiae were prepared according to standard procedures, described by Staehelin and Maglott, Methods Enzymol. 20 (1971) 449, and by Sanchez-Madrid et al, Eur. J. Biochem. 98 (1979) 409.
as §2

[7] = soft agar 0.3%, 3 days continuous exposure, vs non-treated control cells
[8] = female mice, ip daily x9, optimal dose mg/kg: sparsomycin 0.25, n-octyl 12.0, benzyl 10.0, 2a 2.5, 2e 13.3
[9] = female mice, ip daily x9, dose mg/kg: sparsomycin 0.25, n-octyl 12.0, benzyl 10.0, 2a 2.5, 2e 13.3
[10] = male mice, ip daily x9, optimal dose mg/kg: sparsomycin 0.125, n-octyl 20.0, benzyl 4.0, 2a 1.7
[11] = male mice, ip daily x9, dose mg/kg: sparsomycin 0.125, n-octyl 20.0, benzyl 4.0, 2a 1.7
[12] = male mice, ip daily x9, dose mg/kg: sparsomycin 0.125, n-octyl 22.5, benzyl 2.0, 2e 20.0
[13] = male mice, ip daily x9, dose mg/kg: sparsomycin 0.125, n-octyl 20.0, benzyl 2.7, 2a 1.1
[14] = Escherichia coli, MRE600, 4 h, read-out: Growth inhibition E. coli MRE600 ED50

Compound	IC50 [1] [µM]	LD50 (acute toxicity LD50) [mg/kg]	IC50 (Leukemia L 1210 cells; [7]) [nM]	IC50 [2] [µM]	IC50 [3] [µM]	T/C (survival, treatment/control x 100%) (L1210 leukemia; [8]) [%]	cures (survivors in groups of 6 mice) (L1210 leukemia; [9])	T/C (survival, treatment/control x 100%) (L1210 leukemia; [10]) [%]	cures (survivors in groups of 6 mice) (L1210 leukemia; [11])	weight loss (T - C) (L1210 leukemia; mouse, in vivo, ip) [g]	IC50 [4] [nM]	T/C (survival, treatment/control x 100%) (P388 leukemia; male mice) [%]	cures (survivors in groups of 6 mice) (P388 leukemia; [12])	weight loss (T - C) (P388 leukemia; mouse, in vivo, ip) [g]	T/C (survival, treatment/control x 100%) ([5]; male mice) [%]	cures (survivors in groups of 6 mice) [5, 13]	solubility (solubility in water) [µg/mL]	IC50 [6] [nM]	IC50 (Leukemia L 1210 cells) [nM]	IC50 (E. coli MRE600; [14]) [nM]	other results
CCCCCCCCSC[S@+]([O-])C[C@H](CO)NC(=O)/C=C/c1c(C)[nH]c(=O)[nH]c1=O [n-octyl-sparsomycin]	1.6	29.5	100	60	300	153	0/6	152	0/6	-1.9	250	150	0/6	-1.7	179	0/6	~200 (≈ 435 µM)	1300	–	–	weight loss (T - C) ([5]; mouse, in vivo, ip): -1.6 g; IC50 (E. coli MRE600; Escherichia coli, MRE600, 4 h; read-out: Growth inhibition E. coli MRE600 ED50): 2500 nM
CSC[S@@+]([O-])C[C@H](C)NC(=O)/C=C/c1c(C)[nH]c(=O)[nH]c1=O [3a, (Sc Ss)-1-(methylthiomethyl)sulfinyl-2-[β-(6-methyl-5-uracilyl)acrylamido]-propane]	283	–	–	55	68	–	–	–	–	–	2700	–	–	–	–	–	–	143000	550	44000	–
CCCCSC[S@+]([O-])C[C@H](C)NC(=O)/C=C/c1c(C)[nH]c(=O)[nH]c1=O [2e, (Sc Rs)-1-(n-butylthiomethyl)sulfinyl-2-[β-(6-methyl-5-uracilyl)acrylamido]-propane]	–	> 16	–	–	–	161	0/6	–	–	-0.7	–	146	0/6	-3.2	–	–	–	–	–	–	–
Cc1[nH]c(=O)[nH]c(=O)c1/C=C/C(=O)N[C@@H](CO)C[S@@+]([O-])CSCc1ccccc1 [benzyl-sparsomycin]	–	5	–	7.6	2.6	217	0/6	162	0/6	–	130	133	0/6	–	158	0/6	1500 (≈ 3430 µM)	600	110	1000	weight loss (T - C) (L1210 leukemia; [9]): -1.6 g; weight loss (T - C) (L1210 leukemia; male mice, ip daily x9 from 24 h after implant, dose mg/kg: sparsomycin 0.125, n-octyl 20.0, benzyl 4.0, 2a 1.7): -1.8 g; weight loss (T - C) (P388 leukemia; [12]): -2.2 g; weight loss (T - C) [5, 13]: -1.8 g
CCCCCCCCSC[S@+]([O-])C[C@H](C)NC(=O)/C=C/c1c(C)[nH]c(=O)[nH]c1=O [2f, (Sc Rs)-1-(n-octylthiomethyl)sulfinyl-2-[β-(6-methyl-5-uracilyl)acrylamido]-propane]	–	–	180	–	–	–	–	–	–	–	–	–	–	–	–	–	–	–	–	–	–
